# From ChEMBL document CHEMBL1142873, “Synthesis, structural activity relationship and anti-tubercular activity of novel pyrazoline derivatives” (2007)
# Experiments:
# Assay type in all cases: functional
# [1] = system: Mycobacterium tuberculosis; assay: Antimycobacterial activity against Mycobacterium tuberculosis H37Rv at 0.0118 uM
# [2] = system: Mycobacterium tuberculosis; assay: Antimycobacterial activity against Mycobacterium tuberculosis H37Rv
# [3] = system: Mycobacterium tuberculosis; assay: Antimycobacterial activity against Mycobacterium tuberculosis H37Rv at 0.0164 uM
# [4] = system: Mycobacterium tuberculosis; assay: Antimycobacterial activity against Mycobacterium tuberculosis H37Rv at 0.0202 uM
# [5] = system: Mycobacterium tuberculosis; assay: Antimycobacterial activity against Mycobacterium tuberculosis H37Rv at 0.2080 uM
# [6] = system: Mycobacterium tuberculosis; assay: Antimycobacterial activity against Mycobacterium tuberculosis H37Rv at 0.0201 uM
# [7] = system: Mycobacterium tuberculosis; assay: Antimycobacterial activity against Mycobacterium tuberculosis H37Rv at 0.1706 uM
# [8] = system: Mycobacterium tuberculosis; assay: Antimycobacterial activity against Mycobacterium tuberculosis H37Rv at 0.0138 uM
# [9] = system: Mycobacterium tuberculosis; assay: Antimycobacterial activity against Mycobacterium tuberculosis H37Rv at 0.0140 uM
# [10] = system: Mycobacterium tuberculosis; assay: Antimycobacterial activity against Mycobacterium tuberculosis H37Rv at 0.0354 uM
# [11] = system: Mycobacterium tuberculosis; assay: Antimycobacterial activity against Mycobacterium tuberculosis H37Rv at 0.0135 uM
# [12] = system: Mycobacterium tuberculosis; assay: Antimycobacterial activity against Mycobacterium tuberculosis H37Rv at 0.0149 uM
# [13] = system: Mycobacterium tuberculosis; assay: Antimycobacterial activity against Mycobacterium tuberculosis H37Rv at 0.0977 uM
# [14] = system: Mycobacterium tuberculosis; assay: Antimycobacterial activity against Mycobacterium tuberculosis H37Rv at 0.0148 uM
# [15] = system: Mycobacterium tuberculosis; assay: Antimycobacterial activity against Mycobacterium tuberculosis H37Rv at 0.0143 uM
# [16] = system: Mycobacterium tuberculosis; assay: Antimycobacterial activity against Mycobacterium tuberculosis H37Rv at 0.0132 uM
# [17] = system: Mycobacterium tuberculosis; assay: Antimycobacterial activity against Mycobacterium tuberculosis H37Rv at 0.0092 uM
# [18] = system: Mycobacterium tuberculosis; assay: Antimycobacterial activity against Mycobacterium tuberculosis H37Rv at 0.0034 uM
# [19] = system: Mycobacterium tuberculosis; assay: Antimycobacterial activity against Mycobacterium tuberculosis H37Rv at 0.1467 uM
# [20] = system: Mycobacterium tuberculosis; assay: Antimycobacterial activity against Mycobacterium tuberculosis H37Rv at 0.0150 uM
# [21] = system: Mycobacterium tuberculosis; assay: Antimycobacterial activity against Mycobacterium tuberculosis H37Rv at 0.0084 uM
# [22] = system: Mycobacterium tuberculosis; assay: Antimycobacterial activity against Mycobacterium tuberculosis H37Rv at 0.0403 uM
smiles,measurement,setting,value
COc1ccccc1NC(=S)N1N=C(c2ccc(O)c(C)c2)CC1c1ccc(OC)c(OC)c1 (stereo not given),inhibition at 0.0118 µM,[1],88%
same,MIC,[2],5.67 µg/mL
COc1ccccc1NC(=S)N1N=C(c2ccc(O)c(C)c2)CC1c1ccc(F)cc1 (stereo not given),inhibition at 0.0164 µM,[3],16%
COc1ccccc1NC(=S)N1N=C(c2ccc(O)c(C)c2)CC1c1ccccc1Cl (stereo not given),inhibition at 0.0202 µM,[4],44%
COc1ccccc1NC(=S)N1N=C(c2ccc(O)c(C)c2)CC1c1cccc([N+](=O)[O-])c1 (stereo not given),inhibition at 0.208 µM,[5],8%
COc1ccccc1NC(=S)N1N=C(c2ccc(O)c(C)c2)CC1Cc1ccco1 (stereo not given),inhibition at 0.0201 µM,[6],18%
Cc1cc(C2=NN(C(=S)Nc3ccccc3C)C(Cc3ccco3)C2)ccc1O (stereo not given),inhibition at 0.1706 µM,[7],26%
COc1ccccc1NC(=S)N1N=C(c2ccc(O)c(C)c2)CC1c1ccc(Cl)cc1 (stereo not given),inhibition at 0.0138 µM,[8],4%
same,MIC,[2],6.25 µg/mL
Cc1cc(C2=NN(C(=S)Nc3ccccc3C)C(c3ccc(N(C)C)cc3)C2)ccc1O (stereo not given),inhibition at 0.014 µM,[9],12%
same,MIC,[2],6.25 µg/mL
Cc1cc(C2=NN(C(=S)Nc3ccccc3C)C(c3ccccc3)C2)ccc1O (stereo not given),inhibition at 0.0354 µM,[10],29%
COc1ccccc1NC(=S)N1N=C(c2ccc(O)c(C)c2)CC1c1ccc(N(C)C)cc1 (stereo not given),inhibition at 0.0135 µM,[11],28%
same,MIC,[2],6.25 µg/mL
COc1ccccc1NC(=S)N1N=C(c2ccc(O)c(C)c2)CC1c1ccccc1 (stereo not given),MIC,[2],6.25 µg/mL
same,inhibition at 0.0149 µM,[12],6%
COc1ccc(C2CC(c3ccc(O)c(C)c3)=NN2C(=S)Nc2ccccc2C)cc1OC (stereo not given),inhibition at 0.0977 µM,[13],72%
Cc1cc(C2=NN(C(=S)Nc3ccccc3C)C(c3ccc(F)cc3)C2)ccc1O (stereo not given),inhibition at 0.0148 µM,[14],32%
same,MIC,[2],6.25 µg/mL
Cc1cc(C2=NN(C(=S)Nc3ccccc3C)C(c3c(Cl)cccc3Cl)C2)ccc1O (stereo not given),inhibition at 0.0143 µM,[15],21%
same,MIC,[2],6.25 µg/mL
Cc1cc(C2=NN(C(=S)Nc3ccccc3C)C(c3cccc([N+](=O)[O-])c3)C2)ccc1O (stereo not given),inhibition at 0.0132 µM,[16],14%
same,MIC,[2],6.25 µg/mL
COc1ccc(C2CC(c3ccc(O)c(C)c3)=NN2C(=S)Nc2ccccc2OC)cc1 (stereo not given),MIC,[2],4.12 µg/mL
same,inhibition at 0.0092 µM,[17],94%
COc1ccccc1NC(=S)N1N=C(c2ccc(O)c(C)c2)CC1c1c(Cl)cccc1Cl (stereo not given),inhibition at 0.0034 µM,[18],98%
same,MIC,[2],1.66 µg/mL
COc1cc(C2CC(c3ccc(O)c(C)c3)=NN2C(=S)Nc2ccccc2C)cc(OC)c1OC (stereo not given),inhibition at 0.1467 µM,[19],44%
Cc1cc(C2=NN(C(=S)Nc3ccccc3C)C(c3ccccc3Cl)C2)ccc1O (stereo not given),inhibition at 0.015 µM,[20],33%
same,MIC,[2],6.25 µg/mL
COc1ccccc1NC(=S)N1N=C(c2ccc(O)c(C)c2)CC1c1cc(OC)c(OC)c(OC)c1 (stereo not given),inhibition at 0.0084 µM,[21],92%
Cc1cc(C2=NN(C(=S)Nc3ccccc3C)C(c3ccc(Cl)cc3)C2)ccc1O (stereo not given),inhibition at 0.0143 µM,[15],44%
same,MIC,[2],6.25 µg/mL
COc1ccc(C2CC(c3ccc(O)c(C)c3)=NN2C(=S)Nc2ccccc2C)cc1 (stereo not given),inhibition at 0.0403 µM,[22],6%
NNC(=O)c1ccncc1 [ISONIAZID],MIC,[2],0.025 µg/mL
